Data: patent US9156801B2, “2-substituted oleanolic acid derivative, method preparing for same, and application thereof” (HANGZHOU BENSHENG PHARMACEUTICAL CO., LTD., priority 2011, dated 2015)
≈ marks a conversion by molar mass, not a printed value.

Assays:
H9 cell line = test: leukemia cell growth inhibition, MTT; assay type: cell-based; conditions: Homo sapiens; for IC50: H9, 72 h; for inhibition at 16 µg/mL: H9, 16 μg/mL compound, 72 h, read-out: IR (cell proliferation inhibition rate)
Summary of the method: (§1)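 Proliferation inhibition rates derive from MTT-measured viability, normalised so the compound-free group equals 0%. Exposure lasted 72 hours at 37° C, 5% CO2, starting from 6000 cells/well in serum-supplemented (10% FBS) 1640 medium.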

Jurkat cell line = test: leukemia cell growth inhibition, MTT; assay type: cell-based; conditions: Homo sapiens, 72 h; for inhibition at 16 µg/mL: 16 μg/mL compound, read-out: IR (cell proliferation inhibition rate)
Summary of the method: as §1

K562/adr cell line = test: leukemia cell growth inhibition, MTT; assay type: cell-based; conditions: Homo sapiens, 72 h; for IC50: K562/Adr; for inhibition at 16 µg/mL: K562/adr, 16 μg/mL compound, read-out: IR (cell proliferation inhibition rate)
Summary of the method: as §1

Kasumi-1 cell line = test: leukemia cell growth inhibition, MTT; assay type: cell-based; conditions: Homo sapiens; for inhibition at 16 µg/mL: Kasumi-1, 16 μg/mL compound, 72 h, read-out: IR (cell proliferation inhibition rate); for IC50: Kasumi-1, 72 h
Summary of the method: as §1

NB4 cell line = test: leukemia cell growth inhibition, MTT; assay type: cell-based; conditions: Homo sapiens, NB-4; for inhibition at 16 µg/mL: NB4, 16 μg/mL compound, 72 h, read-out: IR (cell proliferation inhibition rate); for IC50: NB4, 72 h
Summary of the method: as §1

RPMI8226 cell line = test: multiple myeloma cell growth inhibition, MTT; assay type: cell-based; conditions: Homo sapiens, RPMI-8226; for inhibition at 16 µg/mL: RPMI8226, 16 μg/mL compound, 72 h, read-out: IR (cell proliferation inhibition rate); for IC50: RPMI8226, 72 h
Summary of the method: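 Viability was measured by MTT after a 72 h compound exposure (37° C, 5% CO2) of RPMI8226 myeloma cells seeded at 6000 per well in 1640 medium with 10% fetal bovine serum. Growth inhibition was expressed relative to untreated cells, taken as 0%.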

Hep G2 cell line = test: solid tumor cell growth inhibition, MTT; assay type: cell-based, human; conditions: Homo sapiens; for inhibition at 16 µg/mL: HepG2, 72 h, Hep G2, 16 μg/mL compound, 72 h, read-out: IR (cell proliferation inhibition rate); for IC50: HepG2, Hep G2, 72 h
Summary of the method: (§2)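 DMEM high glucose, 10% FBS, 4000 cells per well. 24 h at 37° C/5% CO2 before dosing, 72 h with compound. MTT end-point, inhibition normalized to untreated control at 0%.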

A549 cell line = test: solid tumor cell growth inhibition, MTT; assay type: cell-based; conditions: Homo sapiens; for IC50: A549, 72 h; for inhibition at 16 µg/mL: A549, 16 μg/mL compound, 72 h, read-out: IR (cell proliferation inhibition rate)
Summary of the method: as §2

Becap37 cell line = test: solid tumor cell growth inhibition, MTT; assay type: cell-based; conditions: Homo sapiens; for inhibition at 16 µg/mL: Becap37, 16 μg/mL compound, 72 h, read-out: IR (cell proliferation inhibition rate); for IC50: Becap37, 72 h
Summary of the method: as §2

CNE cell line = test: solid tumor cell growth inhibition, MTT; assay type: cell-based; conditions: Homo sapiens, 72 h; for inhibition at 16 µg/mL: 16 μg/mL compound, read-out: IR (cell proliferation inhibition rate)
Summary of the method: as §2

CaES-17 cell line = test: solid tumor cell growth inhibition, MTT; assay type: cell-based; conditions: Homo sapiens, CaEs17; for inhibition at 16 µg/mL: CaES-17, 16 μg/mL compound, 72 h, read-out: IR (cell proliferation inhibition rate); for IC50: CaES-17, 72 h
Summary of the method: as §2

Hela cell line = test: solid tumor cell growth inhibition, MTT; assay type: cell-based; conditions: Homo sapiens, 72 h; for IC50: HeLa; for inhibition at 16 µg/mL: Hela, 16 μg/mL compound, read-out: IR (cell proliferation inhibition rate)
Summary of the method: as §2

Hep-2 cell line = test: solid tumor cell growth inhibition, MTT; assay type: cell-based; conditions: Homo sapiens; for IC50: HEp-2, 72 h; for inhibition at 16 µg/mL: Hep-2, 16 μg/mL compound, 72 h, read-out: IR (cell proliferation inhibition rate)
Summary of the method: as §2

MG-63 cell line = test: solid tumor cell growth inhibition, MTT; assay type: cell-based; conditions: Homo sapiens; for IC50: MG-63, 72 h; for inhibition at 16 µg/mL: MG-63, 16 μg/mL compound, 72 h, read-out: IR (cell proliferation inhibition rate)
Summary of the method: as §2

MGC 803 cell line = test: solid tumor cell growth inhibition, MTT; assay type: cell-based; conditions: Homo sapiens; for inhibition at 16 µg/mL: MGC 803, 16 μg/mL compound, 72 h, read-out: IR (cell proliferation inhibition rate); for IC50: MGC 803, 72 h
Summary of the method: as §2

PANC-1 cell line = test: solid tumor cell growth inhibition, MTT; assay type: cell-based; conditions: Homo sapiens; for IC50: PANC-1, 72 h; for inhibition at 16 µg/mL: PANC-1, 16 μg/mL compound, 72 h, read-out: IR (cell proliferation inhibition rate)
Summary of the method: as §2

PC-3 cell line = test: solid tumor cell growth inhibition, MTT; assay type: cell-based; conditions: Homo sapiens; for IC50: PC-3, 72 h; for inhibition at 16 µg/mL: PC-3, 16 μg/mL compound, 72 h, read-out: IR (cell proliferation inhibition rate)
Summary of the method: as §2

RKO cell line = test: solid tumor cell growth inhibition, MTT; assay type: cell-based; conditions: Homo sapiens, 72 h; for inhibition at 16 µg/mL: 16 μg/mL compound, read-out: IR (cell proliferation inhibition rate)
Summary of the method: as §2

SK-OV-3 cell line = test: solid tumor cell growth inhibition, MTT; assay type: cell-based; conditions: Homo sapiens; for IC50: SK-OV-3, 72 h; for inhibition at 16 µg/mL: SK-OV-3, 16 μg/mL compound, 72 h, read-out: IR (cell proliferation inhibition rate)
Summary of the method: as §2

U87 MG cell line = test: solid tumor cell growth inhibition, MTT; assay type: cell-based; conditions: Homo sapiens, U-87 MG, 72 h; for inhibition at 16 µg/mL: 16 μg/mL compound, read-out: IR (cell proliferation inhibition rate)
Summary of the method: as §2

SMILES	IC50 (H9 cell line) [µg/mL]	inhibition at 16 µg/mL (H9 cell line) [%]	inhibition at 16 µg/mL (Jurkat cell line) [%]	IC50 (Jurkat cell line) [µg/mL]	IC50 (K562/adr cell line) [µg/mL]	inhibition at 16 µg/mL (K562/adr cell line) [%]	inhibition at 16 µg/mL (Kasumi-1 cell line) [%]	IC50 (Kasumi-1 cell line) [µg/mL]	inhibition at 16 µg/mL (NB4 cell line) [%]	IC50 (NB4 cell line) [µg/mL]	inhibition at 16 µg/mL (RPMI8226 cell line) [%]	IC50 (RPMI8226 cell line) [µg/mL]	inhibition at 16 µg/mL (Hep G2 cell line) [%]	IC50 (Hep G2 cell line) [µg/mL]	IC50 (A549 cell line) [µg/mL]	inhibition at 16 µg/mL (A549 cell line) [%]	inhibition at 16 µg/mL (Becap37 cell line) [%]	IC50 (Becap37 cell line) [µg/mL]	inhibition at 16 µg/mL (CNE cell line) [%]	IC50 (CNE cell line) [µg/mL]	also measured
COC(=O)[C@]12CCC(C)(C)CC1C1=CCC3[C@@]4(C)CC(C(=O)NCCC(C)C)C(=O)C(C)(C)C4CC[C@@]3(C)[C@]1(C)CC2 (stereo partly drawn) [BS-OA-031]	> 16	31.9	-28.5	> 16	12.1 (≈ 20.7 µM)	62.2	10	> 16	-0.9	> 16	4.4	> 16	6.7	> 16	> 16	-6.3	-5.8	> 16	15.8	> 16	inhibition at 16 µg/mL (CaES-17 cell line): -4.7%; IC50 (CaES-17 cell line): > 16 µg/mL; IC50 (Hela cell line): > 16 µg/mL; inhibition at 16 µg/mL (Hela cell line): 2.5%; IC50 (Hep-2 cell line): > 16 µg/mL; inhibition at 16 µg/mL (Hep-2 cell line): 10.5%; IC50 (MG-63 cell line): > 16 µg/mL; inhibition at 16 µg/mL (MG-63 cell line): -1.3%; inhibition at 16 µg/mL (MGC 803 cell line): 0.8%; IC50 (MGC 803 cell line): > 16 µg/mL; IC50 (PANC-1 cell line): > 16 µg/mL; inhibition at 16 µg/mL (PANC-1 cell line): -1.4%; IC50 (PC-3 cell line): > 16 µg/mL; inhibition at 16 µg/mL (PC-3 cell line): 9.8%; inhibition at 16 µg/mL (RKO cell line): -12.1%; IC50 (RKO cell line): > 16 µg/mL; IC50 (SK-OV-3 cell line): > 16 µg/mL; inhibition at 16 µg/mL (SK-OV-3 cell line): 18%; inhibition at 16 µg/mL (U87 MG cell line): 5.3%; IC50 (U87 MG cell line): > 16 µg/mL
COC(=O)[C@]12CCC(C)(C)CC1C1=CCC3[C@@]4(C)CC(C(=O)NCCc5ccccn5)C(=O)C(C)(C)C4CC[C@@]3(C)[C@]1(C)CC2 (stereo partly drawn) [BS-OA-032]	13.6 (≈ 22 µM)	62.3	75.4	10.8 (≈ 17.6 µM)	12.9 (≈ 20.9 µM)	63.7	48.6	16 (≈ 25.9 µM)	85.2	9.82 (≈ 15.9 µM)	30.3	> 16	23.7	> 16	> 16	-6.6	4.1	> 16	23.6	> 16	inhibition at 16 µg/mL (CaES-17 cell line): 22%; IC50 (CaES-17 cell line): > 16 µg/mL; IC50 (Hela cell line): 15.8 µg/mL (≈ 25.7 µM); inhibition at 16 µg/mL (Hela cell line): 57%; IC50 (Hep-2 cell line): > 16 µg/mL; inhibition at 16 µg/mL (Hep-2 cell line): 5.2%; IC50 (MG-63 cell line): > 16 µg/mL; inhibition at 16 µg/mL (MG-63 cell line): 4.7%; inhibition at 16 µg/mL (MGC 803 cell line): 14.1%; IC50 (MGC 803 cell line): > 16 µg/mL; IC50 (PANC-1 cell line): > 16 µg/mL; inhibition at 16 µg/mL (PANC-1 cell line): 14.5%; IC50 (PC-3 cell line): > 16 µg/mL; inhibition at 16 µg/mL (PC-3 cell line): 32.5%; inhibition at 16 µg/mL (RKO cell line): -5.3%; IC50 (RKO cell line): > 16 µg/mL; IC50 (SK-OV-3 cell line): > 16 µg/mL; inhibition at 16 µg/mL (SK-OV-3 cell line): 26.3%; inhibition at 16 µg/mL (U87 MG cell line): 30.4%; IC50 (U87 MG cell line): > 16 µg/mL
COC(=O)[C@]12CCC(C)(C)CC1C1=CCC3[C@@]4(C)CC(C(=O)NC5CC5)C(=O)C(C)(C)C4CC[C@@]3(C)[C@]1(C)CC2 (stereo partly drawn) [BS-OA-034]	> 16	22.1	-19.6	> 16	> 16	25.3	22.6	> 16	22.3	> 16	15.5	> 16	8.9	> 16	> 16	5.3	-6.7	> 16	16.7	> 16	inhibition at 16 µg/mL (CaES-17 cell line): -6.7%; IC50 (CaES-17 cell line): > 16 µg/mL; IC50 (Hela cell line): > 16 µg/mL; inhibition at 16 µg/mL (Hela cell line): 0.6%; IC50 (Hep-2 cell line): > 16 µg/mL; inhibition at 16 µg/mL (Hep-2 cell line): 5.4%; IC50 (MG-63 cell line): > 16 µg/mL; inhibition at 16 µg/mL (MG-63 cell line): -5.4%; inhibition at 16 µg/mL (MGC 803 cell line): -3.2%; IC50 (MGC 803 cell line): > 16 µg/mL; IC50 (PANC-1 cell line): > 16 µg/mL; inhibition at 16 µg/mL (PANC-1 cell line): -9.9%; IC50 (PC-3 cell line): > 16 µg/mL; inhibition at 16 µg/mL (PC-3 cell line): 19%; inhibition at 16 µg/mL (RKO cell line): -41%; IC50 (RKO cell line): > 16 µg/mL; IC50 (SK-OV-3 cell line): > 16 µg/mL; inhibition at 16 µg/mL (SK-OV-3 cell line): 21.3%; inhibition at 16 µg/mL (U87 MG cell line): 18.2%; IC50 (U87 MG cell line): > 16 µg/mL
